These results are taken from ChEMBL document CHEMBL5465560, “Selectivity Literature for EUbOPEN Chemogenomic Library” (2024).

Each structure is given as a SMILES string.

Test [1] concerns the target T1, Dual specificity mitogen-activated protein kinase kinase 6 (Homo sapiens) (UniProt P52564).
T1 sequence (whole entry): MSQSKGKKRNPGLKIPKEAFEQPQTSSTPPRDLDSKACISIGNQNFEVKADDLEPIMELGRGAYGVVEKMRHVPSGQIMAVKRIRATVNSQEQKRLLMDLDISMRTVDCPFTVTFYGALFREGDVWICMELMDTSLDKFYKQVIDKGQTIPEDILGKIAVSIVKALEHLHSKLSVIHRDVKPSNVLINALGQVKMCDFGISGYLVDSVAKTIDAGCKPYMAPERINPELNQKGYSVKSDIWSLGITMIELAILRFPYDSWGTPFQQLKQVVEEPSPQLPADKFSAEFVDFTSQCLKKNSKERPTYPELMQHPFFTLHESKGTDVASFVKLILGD
As to the kind of experiment: Selectivity interaction (Kinase panel (Z-LYTE Assay)) EUB0001632a MAP2K6. As to conditions: at 10 µM.

The target in test [2] is Mitogen-activated protein kinase 10 (Homo sapiens, UniProt P53779). Nature of the test: Selectivity interaction (KinomeScan (DiscoverX)) EUB0001619a MAPK10. As to conditions: at 1 µM.
Sequence of Mitogen-activated protein kinase 10 (P53779 whole entry): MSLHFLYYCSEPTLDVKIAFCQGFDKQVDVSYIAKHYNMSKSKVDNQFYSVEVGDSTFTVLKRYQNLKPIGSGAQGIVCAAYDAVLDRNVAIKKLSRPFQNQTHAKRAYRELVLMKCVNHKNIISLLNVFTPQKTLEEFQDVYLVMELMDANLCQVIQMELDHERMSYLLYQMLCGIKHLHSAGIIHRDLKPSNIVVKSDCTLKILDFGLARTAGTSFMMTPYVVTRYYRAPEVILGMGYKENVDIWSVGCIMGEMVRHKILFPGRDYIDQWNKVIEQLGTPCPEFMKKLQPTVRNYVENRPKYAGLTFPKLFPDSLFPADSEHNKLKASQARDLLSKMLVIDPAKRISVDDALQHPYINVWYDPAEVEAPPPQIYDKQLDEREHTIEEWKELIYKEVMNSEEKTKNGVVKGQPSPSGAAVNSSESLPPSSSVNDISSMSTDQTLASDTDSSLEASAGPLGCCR
Test [3] is described as follows: Selectivity interaction (KinomeScan (DiscoverX)) EUB0000695a CDK2H. As to conditions: at 100 nM.
For test [4], the target named is Ribosomal protein S6 kinase alpha-4 (Homo sapiens) (UniProt O75676). As to the kind of experiment: Selectivity interaction (KinomeScan (DiscoverX)) EUB0000666a RPS6KA4. As to conditions: at 10 µM.
Test [5] addresses Serine/threonine-protein kinase N1 (Homo sapiens, UniProt Q16512). Nature of the test: Selectivity interaction (ActivX KiNativ screen (kinase selectivity in THP-1 cell lysates)) EUB0000639a PKN1. As to conditions: lysate, at 0.04 µM. The format is subcellular.
The target of test [6] is G protein-coupled receptor kinase 5 (Homo sapiens, UniProt P34947). As to the kind of experiment: Selectivity interaction (Kinase panel (Invitrogen)) EUB0000639a GRK5. As to conditions: at 200 nM.
Sequence of G protein-coupled receptor kinase 5 (P34947 whole entry, looked up): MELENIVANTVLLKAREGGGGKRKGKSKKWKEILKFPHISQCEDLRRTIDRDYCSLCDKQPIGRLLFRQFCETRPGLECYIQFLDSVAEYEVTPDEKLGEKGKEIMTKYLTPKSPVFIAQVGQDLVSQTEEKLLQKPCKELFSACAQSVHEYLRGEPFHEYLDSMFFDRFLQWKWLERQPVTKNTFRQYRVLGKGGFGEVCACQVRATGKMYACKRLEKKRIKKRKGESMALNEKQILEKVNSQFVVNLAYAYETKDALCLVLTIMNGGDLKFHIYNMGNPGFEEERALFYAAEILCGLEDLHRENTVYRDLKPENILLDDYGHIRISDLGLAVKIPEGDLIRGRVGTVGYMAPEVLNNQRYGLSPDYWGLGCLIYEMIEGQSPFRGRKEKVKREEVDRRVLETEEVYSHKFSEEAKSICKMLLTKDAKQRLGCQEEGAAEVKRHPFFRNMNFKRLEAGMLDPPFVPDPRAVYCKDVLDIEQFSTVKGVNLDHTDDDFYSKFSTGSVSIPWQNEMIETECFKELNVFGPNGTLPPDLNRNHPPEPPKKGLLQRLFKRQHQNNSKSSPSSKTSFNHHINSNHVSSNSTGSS
Test [7] concerns the target 5'-AMP-activated protein kinase catalytic subunit alpha-1 (Homo sapiens, UniProt Q13131). As to the kind of experiment: Selectivity interaction (ActivX KiNativ screen (kinase selectivity in THP-1 cell lysates)) EUB0000639a PRKAA1. The format is subcellular. As to conditions: lysate.
Test [8] deals with Calcium/calmodulin-dependent protein kinase type II subunit beta (Homo sapiens) (UniProt Q13554). As to the kind of experiment: Selectivity interaction (ActivX KiNativ screen (kinase selectivity in THP-1 cell lysates)) EUB0000639a CAMK2B. As to conditions: lysate, at 0.2 µM. In kind it is subcellular.
Sequence of Calcium/calmodulin-dependent protein kinase type II subunit beta (Homo sapiens) (Q13554 whole entry): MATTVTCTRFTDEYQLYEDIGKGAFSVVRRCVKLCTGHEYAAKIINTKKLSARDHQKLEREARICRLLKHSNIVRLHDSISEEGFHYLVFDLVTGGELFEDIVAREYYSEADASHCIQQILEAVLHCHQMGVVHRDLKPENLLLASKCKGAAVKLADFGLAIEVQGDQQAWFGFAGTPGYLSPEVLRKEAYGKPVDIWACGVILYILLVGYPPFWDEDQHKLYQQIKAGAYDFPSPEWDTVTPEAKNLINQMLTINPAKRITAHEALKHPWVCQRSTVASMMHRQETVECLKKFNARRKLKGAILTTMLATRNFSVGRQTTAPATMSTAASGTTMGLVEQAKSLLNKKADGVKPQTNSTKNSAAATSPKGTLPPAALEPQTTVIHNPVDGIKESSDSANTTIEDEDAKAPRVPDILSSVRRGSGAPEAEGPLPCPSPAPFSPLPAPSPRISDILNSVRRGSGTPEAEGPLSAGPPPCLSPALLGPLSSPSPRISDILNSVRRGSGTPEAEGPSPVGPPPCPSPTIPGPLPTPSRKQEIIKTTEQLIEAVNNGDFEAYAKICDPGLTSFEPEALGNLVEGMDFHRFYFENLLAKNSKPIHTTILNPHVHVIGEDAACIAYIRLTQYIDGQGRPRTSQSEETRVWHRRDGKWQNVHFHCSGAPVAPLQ
The target of test [9] is Serine/threonine-protein kinase PAK 1 (Homo sapiens) (UniProt Q13153). As to the kind of experiment: Selectivity interaction (Ambit KINOMEscan and KiNATiv profiling in Jurkat cells) EUB0000090b PAK1. In kind it is cell-based. As to conditions: at 1 µM.
The target in test [10] is ALK tyrosine kinase receptor (Homo sapiens, UniProt Q9UM73). As to the kind of experiment: Selectivity interaction (KinomeScan (DiscoverX)) EUB0000092b ALK. As to conditions: at 10 µM.
Sequence of ALK tyrosine kinase receptor (Q9UM73 19-1620 limits assumed): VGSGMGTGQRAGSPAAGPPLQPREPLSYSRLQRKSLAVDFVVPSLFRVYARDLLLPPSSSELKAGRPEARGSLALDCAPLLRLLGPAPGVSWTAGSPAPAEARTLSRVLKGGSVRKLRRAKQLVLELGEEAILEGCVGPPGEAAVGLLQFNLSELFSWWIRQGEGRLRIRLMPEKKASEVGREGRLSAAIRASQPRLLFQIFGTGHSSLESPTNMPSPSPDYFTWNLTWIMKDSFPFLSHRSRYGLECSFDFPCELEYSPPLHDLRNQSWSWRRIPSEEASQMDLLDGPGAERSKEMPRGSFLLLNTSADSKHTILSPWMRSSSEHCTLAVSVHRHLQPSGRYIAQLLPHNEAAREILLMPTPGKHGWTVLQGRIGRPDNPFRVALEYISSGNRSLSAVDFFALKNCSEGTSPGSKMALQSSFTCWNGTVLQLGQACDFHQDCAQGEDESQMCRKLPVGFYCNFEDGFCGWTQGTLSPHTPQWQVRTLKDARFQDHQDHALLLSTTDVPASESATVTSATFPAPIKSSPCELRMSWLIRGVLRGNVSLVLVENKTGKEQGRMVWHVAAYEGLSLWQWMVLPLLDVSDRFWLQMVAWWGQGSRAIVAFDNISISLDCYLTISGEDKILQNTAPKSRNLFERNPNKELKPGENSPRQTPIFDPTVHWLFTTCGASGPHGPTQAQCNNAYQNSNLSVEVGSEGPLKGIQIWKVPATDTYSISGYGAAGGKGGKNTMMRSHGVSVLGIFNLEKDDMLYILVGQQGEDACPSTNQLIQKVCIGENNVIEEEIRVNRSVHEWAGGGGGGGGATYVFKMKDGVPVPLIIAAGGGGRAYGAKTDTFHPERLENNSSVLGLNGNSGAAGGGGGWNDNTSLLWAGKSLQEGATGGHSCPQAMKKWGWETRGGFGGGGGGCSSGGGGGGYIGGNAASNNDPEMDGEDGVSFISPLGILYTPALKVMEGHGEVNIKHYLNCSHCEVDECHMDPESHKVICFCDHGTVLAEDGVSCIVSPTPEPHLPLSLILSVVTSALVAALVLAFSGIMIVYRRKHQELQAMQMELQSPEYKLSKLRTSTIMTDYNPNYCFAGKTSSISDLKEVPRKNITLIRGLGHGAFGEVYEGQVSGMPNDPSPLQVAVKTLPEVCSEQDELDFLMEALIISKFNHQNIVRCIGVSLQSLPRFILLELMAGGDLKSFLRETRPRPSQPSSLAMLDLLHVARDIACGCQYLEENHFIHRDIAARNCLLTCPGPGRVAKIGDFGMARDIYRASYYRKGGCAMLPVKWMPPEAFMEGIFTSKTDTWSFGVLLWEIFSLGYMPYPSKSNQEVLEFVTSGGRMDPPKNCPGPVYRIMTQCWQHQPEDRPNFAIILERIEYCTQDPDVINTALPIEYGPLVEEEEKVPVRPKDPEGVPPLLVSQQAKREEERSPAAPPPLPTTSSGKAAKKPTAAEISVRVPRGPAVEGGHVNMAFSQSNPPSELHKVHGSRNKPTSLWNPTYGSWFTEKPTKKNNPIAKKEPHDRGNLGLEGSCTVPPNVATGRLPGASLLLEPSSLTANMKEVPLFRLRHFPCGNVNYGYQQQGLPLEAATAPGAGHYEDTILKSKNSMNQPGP
The target in test [11] is T2, Discoidin domain-containing receptor 2 (Homo sapiens) (UniProt Q16832).
T2 sequence (whole entry): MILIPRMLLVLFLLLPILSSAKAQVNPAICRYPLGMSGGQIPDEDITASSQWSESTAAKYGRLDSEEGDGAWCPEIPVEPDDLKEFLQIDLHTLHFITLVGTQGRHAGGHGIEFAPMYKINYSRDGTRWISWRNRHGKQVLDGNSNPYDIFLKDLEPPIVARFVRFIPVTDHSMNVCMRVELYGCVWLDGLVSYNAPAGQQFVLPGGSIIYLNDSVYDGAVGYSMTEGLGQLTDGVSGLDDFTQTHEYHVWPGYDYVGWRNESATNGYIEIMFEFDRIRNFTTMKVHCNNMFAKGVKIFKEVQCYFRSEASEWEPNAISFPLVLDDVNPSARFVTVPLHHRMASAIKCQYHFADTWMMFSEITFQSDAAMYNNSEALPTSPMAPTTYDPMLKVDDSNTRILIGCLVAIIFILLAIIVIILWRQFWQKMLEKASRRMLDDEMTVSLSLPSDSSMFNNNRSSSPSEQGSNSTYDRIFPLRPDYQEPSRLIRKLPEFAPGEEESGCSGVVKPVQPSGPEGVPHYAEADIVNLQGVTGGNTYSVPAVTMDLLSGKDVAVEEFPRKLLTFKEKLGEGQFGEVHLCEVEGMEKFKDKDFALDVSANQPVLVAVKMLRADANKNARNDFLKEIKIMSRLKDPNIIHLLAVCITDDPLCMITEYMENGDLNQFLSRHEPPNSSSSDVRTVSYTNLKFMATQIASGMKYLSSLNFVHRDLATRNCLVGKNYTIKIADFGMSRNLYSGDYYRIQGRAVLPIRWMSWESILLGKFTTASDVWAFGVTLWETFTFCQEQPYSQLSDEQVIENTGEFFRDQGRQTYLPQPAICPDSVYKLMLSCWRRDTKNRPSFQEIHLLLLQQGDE
Nature of the test: Selectivity interaction (KinomeScan (DiscoverX)) EUB0001079a DDR2. As to conditions: at 1 µM.

The target of test [12] is T3, MAP/microtubule affinity-regulating kinase 4 (Homo sapiens) (UniProt Q96L34).
T3 sequence (whole entry): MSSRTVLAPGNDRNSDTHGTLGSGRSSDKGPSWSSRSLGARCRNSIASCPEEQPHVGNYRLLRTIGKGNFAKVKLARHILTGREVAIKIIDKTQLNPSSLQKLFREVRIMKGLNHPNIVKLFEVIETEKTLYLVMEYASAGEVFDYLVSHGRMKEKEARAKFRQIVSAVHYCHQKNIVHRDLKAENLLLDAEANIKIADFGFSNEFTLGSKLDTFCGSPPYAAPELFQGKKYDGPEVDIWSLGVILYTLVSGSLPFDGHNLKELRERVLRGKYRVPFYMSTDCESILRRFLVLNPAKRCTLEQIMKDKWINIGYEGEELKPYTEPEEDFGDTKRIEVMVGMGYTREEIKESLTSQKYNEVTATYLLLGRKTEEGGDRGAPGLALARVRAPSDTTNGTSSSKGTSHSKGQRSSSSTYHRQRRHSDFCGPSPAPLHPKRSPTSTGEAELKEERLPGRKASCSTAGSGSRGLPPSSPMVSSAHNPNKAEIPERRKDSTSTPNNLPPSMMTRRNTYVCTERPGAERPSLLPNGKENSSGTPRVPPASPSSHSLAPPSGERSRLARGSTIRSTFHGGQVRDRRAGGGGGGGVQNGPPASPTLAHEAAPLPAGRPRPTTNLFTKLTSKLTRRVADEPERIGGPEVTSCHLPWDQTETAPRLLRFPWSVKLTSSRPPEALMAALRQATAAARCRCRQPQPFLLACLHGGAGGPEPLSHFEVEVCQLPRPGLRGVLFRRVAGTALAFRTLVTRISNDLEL
As to the kind of experiment: Selectivity interaction (Kinase panel (KiNativ target engagement assay in Jurkat cells)) EUB0001635a MARK4. As to conditions: Selectivity number of off-targets 0.0, Selectivity number of targets 233.0, Source Knowledge https://www.sciencedirect.com/science/article/pii/S2451945619300674?via%3Dihub, at 1 µM. The format is cell-based.

Sequence of 5'-AMP-activated protein kinase catalytic subunit alpha-1 (Q13131 whole entry, looked up): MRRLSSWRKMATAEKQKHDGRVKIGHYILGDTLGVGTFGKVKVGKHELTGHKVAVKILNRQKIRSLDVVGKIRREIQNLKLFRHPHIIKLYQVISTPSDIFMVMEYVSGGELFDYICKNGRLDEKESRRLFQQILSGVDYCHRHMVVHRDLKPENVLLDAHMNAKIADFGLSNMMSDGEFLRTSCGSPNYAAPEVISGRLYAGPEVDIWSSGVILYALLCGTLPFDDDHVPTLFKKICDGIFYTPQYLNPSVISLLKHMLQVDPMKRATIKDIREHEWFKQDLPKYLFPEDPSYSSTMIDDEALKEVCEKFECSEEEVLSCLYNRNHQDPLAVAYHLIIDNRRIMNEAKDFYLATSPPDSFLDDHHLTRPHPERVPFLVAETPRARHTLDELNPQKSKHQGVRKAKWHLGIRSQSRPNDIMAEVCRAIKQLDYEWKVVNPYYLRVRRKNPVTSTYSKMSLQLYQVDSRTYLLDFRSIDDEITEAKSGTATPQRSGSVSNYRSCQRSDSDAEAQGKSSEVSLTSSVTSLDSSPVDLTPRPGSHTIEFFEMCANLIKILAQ
Sequence of Serine/threonine-protein kinase N1 (Q16512 2-942 limits assumed): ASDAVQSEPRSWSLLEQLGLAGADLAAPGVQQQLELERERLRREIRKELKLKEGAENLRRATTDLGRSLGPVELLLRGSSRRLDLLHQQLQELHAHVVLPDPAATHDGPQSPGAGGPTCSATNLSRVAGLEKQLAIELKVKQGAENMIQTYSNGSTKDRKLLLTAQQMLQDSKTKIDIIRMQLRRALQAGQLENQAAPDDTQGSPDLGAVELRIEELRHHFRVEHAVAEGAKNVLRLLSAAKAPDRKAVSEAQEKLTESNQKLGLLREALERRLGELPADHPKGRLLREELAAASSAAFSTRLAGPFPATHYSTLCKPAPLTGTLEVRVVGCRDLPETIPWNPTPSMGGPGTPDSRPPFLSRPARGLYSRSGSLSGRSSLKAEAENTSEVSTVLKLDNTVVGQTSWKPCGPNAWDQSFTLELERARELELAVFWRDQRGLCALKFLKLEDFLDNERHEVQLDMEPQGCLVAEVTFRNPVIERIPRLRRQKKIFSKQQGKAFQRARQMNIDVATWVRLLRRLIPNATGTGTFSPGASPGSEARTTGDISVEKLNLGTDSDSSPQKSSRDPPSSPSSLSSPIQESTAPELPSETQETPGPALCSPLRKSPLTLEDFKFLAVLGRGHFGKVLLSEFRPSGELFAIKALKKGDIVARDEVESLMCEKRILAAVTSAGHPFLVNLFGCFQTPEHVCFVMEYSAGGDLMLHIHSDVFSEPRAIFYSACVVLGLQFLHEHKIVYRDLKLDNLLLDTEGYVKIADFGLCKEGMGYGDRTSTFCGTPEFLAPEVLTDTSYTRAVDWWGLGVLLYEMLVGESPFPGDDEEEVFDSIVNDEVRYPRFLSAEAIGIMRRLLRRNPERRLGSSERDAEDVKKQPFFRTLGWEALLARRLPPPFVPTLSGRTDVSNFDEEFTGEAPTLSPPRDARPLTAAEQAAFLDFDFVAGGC

As to `Cn1cc(-n2cnc3c(NCc4nc5cc(Cl)c(Cl)cc5[nH]4)nc(N4CCOCC4)nc32)cn1`, the % of control in test [1] was 5.11%.
On to `N#Cc1cccc(-c2c[nH]c3ncnc(N4CCOCC4)c23)c1`, for which the % of control in [2] amounted to 100%.
In [3], `Cc1cc(F)c(C(=O)Nc2cccc(-c3nncn3C(C)C)n2)cc1-n1cnc(C2CC2)c1` registered a % of control of 92%.
`O=C(NOC[C@H](O)CO)c1ccc(F)c(F)c1Nc1ccc(I)cc1F` had a % of control in test [4] of 86%.
Regarding `CC[C@@H]1[C@H](F)C(=O)N[C@@H]1COc1nccc2cc(C(N)=O)c(OC)cc12` [ZIMLOVISERTIB], the % of inhibition was -5.1% in test [5]; 0.578% in [6]; 16% in test [7] (at 0.01 µM); 21.7% in test [7] (at 0.04 µM); 11.2% in test [7] (at 0.2 µM); 11.8% in test [7] (at 1 µM). Further, the % of inhibition in [7] (at 5 µM) is 28.8%; in [8] it was 4.9%.
As for `CN(C)C/C=C/C(=O)Nc1ccc(C(=O)N2CCCC(Nc3ncc(Cl)c(-c4c[nH]c5ccccc45)n3)C2)cc1` (stereo unspecified), the % of control in [9] worked out at 83%.
Regarding `CCC(=O)N1CCN(c2ccc(-n3c(=O)ccc4cnc5ccc(-c6cnc7ccccc7c6)cc5c43)cc2C(F)(F)F)CC1`, in test [10], the % of control amounted to 80%.
In test [11], `Nc1cnc(N2CCc3cc(S(=O)(=O)Nc4c(F)cc(Cl)cc4F)cc(N4CCCC4=O)c32)nc1` [TP-020n] showed a % of control of 100%.
In turn, `C=CC(=O)Nc1ccc(C(=O)Nc2[nH]nc3c2CN(C(=O)N[C@H](CN(C)C)c2ccccc2)C3(C)C)cc1` yielded a % of engagement in test [12] of 55.8%.
